Assay results as given in PubChem BioAssay (NCI).
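Where inhibition never reached the appropriate level, the endpoint shown equals the highest concentration tested. Otherwise, values were interpolated linearly from a five-concentration, 48-hour dose response in 96-well plates. GI50 = concentration required for 50% inhibition of growth. TGI denotes the concentration required for complete inhibition of growth.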

Columns and labels:
Test in all cases: NCI-60 cell line screen, 48 h
HS 578T breast = test system: HS 578T breast
NCI-H460 lung = test system: NCI-H460 lung
OVCAR-8 ovarian = test system: OVCAR-8 ovarian
HCC-2998 colon = test system: HCC-2998 colon
TK-10 renal = test system: TK-10 renal
K-562 leukemia = test system: K-562 leukemia
SNB-75 CNS = test system: SNB-75 CNS
RXF 393 renal = test system: RXF 393 renal
RPMI-8226 leukemia = test system: RPMI-8226 leukemia
M14 melanoma = test system: M14 melanoma

SMILES	GI50 (HS 578T breast) [µM]	TGI (HS 578T breast) [µM]	GI50 (NCI-H460 lung) [µM]	TGI (NCI-H460 lung) [µM]	GI50 (OVCAR-8 ovarian) [µM]	TGI (OVCAR-8 ovarian) [µM]	GI50 (HCC-2998 colon) [µM]	TGI (HCC-2998 colon) [µM]	GI50 (TK-10 renal) [µM]	TGI (TK-10 renal) [µM]	GI50 (K-562 leukemia) [µM]	TGI (K-562 leukemia) [µM]	GI50 (SNB-75 CNS) [µM]	TGI (SNB-75 CNS) [µM]	GI50 (RXF 393 renal) [µM]	TGI (RXF 393 renal) [µM]	GI50 (RPMI-8226 leukemia) [µM]	TGI (RPMI-8226 leukemia) [µM]	GI50 (M14 melanoma) [µM]	TGI (M14 melanoma) [µM]
C=C1C(=O)O[C@H]2[C@H]1CC/C(COC(=O)c1cccnc1N)=C\CC[C@@]1(C)O[C@@H]21	4.15	65.1	3.09	10.8	4.2	16.3	4.43	16.2	2.59	10.4	0.396	14.1	3.16	17.8	1.53	3.78	0.365	2.54	1.12	3.59
CN1CCC2(CC1)N=C(SCC(=O)Nc1cnc3ccccc3c1)C(c1ccc(Br)cc1)=N2	2.23	7.27	2.03	4.28	2.33	5.54	1.85	3.42	1.99	4.49	1.89	5.05	2.04	9.65	1.77	4.29	2.12	4.9	1.71	3.16
COc1cc2c(cc1OC)C(C(CCCCCC(CCC(C)C)C1NCCc3cc(OC)c(OC)cc31)CCC(C)C)NCC2 (stereo not drawn)	1.42	3.43	0.217	0.436	1.01	2.52	0.188	0.357	1.76	3.21	0.201	0.441	1.62	3.05	1.3	2.75	0.327	0.974	0.449	1.51
C=C1c2nc3ccccc3n2C=C(c2cccc(Cl)c2)N1Cc1ccc(OC)cc1	0.565	> 100	0.416	10.5	2.43	> 57.3	2.32	13.5	6.64	> 64.9	0.29	5.25	0.452	> 100	1.16	13.1	0.361	5.75	0.589	> 44.2
O=S(=O)(NC1=NCCN1C(=S)SN1CCn2c1nsc2=S)c1ccc(Oc2ccccc2)cc1	27.5	> 100	51.2	> 100	> 100	> 100	41.7	> 100	64.4	> 100	–	–	39.5	> 100	32.4	86.1	30.2	> 100	> 100	> 100
CCCCC(=O)N(c1ccc(Nc2c3ccccc3nc3cc([N+](=O)[O-])ccc23)cc1)S(C)(=O)=O	6.15	48.3	0.381	12.8	11	78.8	14.1	30	7.61	> 84	5.16	> 47.4	4.7	64.8	8.44	27.8	2.68	14.3	11	33.6
